We go through 22 compounds from US6878742B2, “Heterocyclic sulfonamide inhibitors of beta amyloid production” (Wyeth, priority 2000, dated 2005).

A word on the melting point: it is the temperature of the solid-liquid transition.

Several values for one entry are separate records, joined by “and”; a condition that tells them apart may be missing. Identical values can stand only once.

The test system of series [1] is amyloid precursor protein (APP) proteolysis. Put plainly: Repressor Release Assay (RRA). The series is classed as cell-based. To be noted: luciferase activity over diluent control. The method in brief: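 CHO-K1 cells grown in DMEM with 10% fetal bovine serum were transiently co-transfected with pRSVO-luc and APP-lacI constructs via Lipofectamine Plus, plated into opaque 96-well plates, and exposed to diluted compound in duplicate for 36-48 hours at 37° C. LucLite luciferase signal was read on a TopCount and expressed as fold increase in relative light units over Hepes/DMSO diluent control.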

The mark [2] stands for this setting: Conc 20 μg/mL, read-out: APPI Fold Increase.
The mark [3] stands for this setting: Conc 10 μg/mL, read-out: APPI Fold Increase.

Take `O=S(=O)(NC(CO)C1CCSCC1)c1ccc(Cl)s1` (stereo not drawn) [Example 224, 5-Chloro-N-(2-hydroxy-1-tetrahydro-H-thiopyran-4-ylethyl)thiophene-2-sulfonamide]: the melting point lay within 108 to 110 °C. Also, the fold induction at 20 µg/mL in series [1] (setting [2]) was 7.2. For the compound `C=C(C)CC(O)C1(NS(=O)(=O)c2ccc(Cl)s2)CCCCC1` (stereo not drawn) [Example 198, 5-chloro-N-[1-(1-hydroxy-3-methylbut-3-enyl)cyclohexyl]thiophene-2-sulfonamide], in series [1] (setting [2]), the fold induction at 20 µg/mL stood at 4.4. With `CC[C@H](C)[C@H](NS(=O)(=O)c1ccc(Cl)s1)C(O)(c1cccc2ccccc12)c1cccc2ccccc12` [Example 172, 5-chloro-N-((S,S)-1-{hydroxy[di(1-naphthyl)]methyl}-2-methylbutyl)thiophene-2-sulfonamide], the fold induction at 10 µg/mL in series [1] (setting [3]) came to 2.

As for `CC[C@H](C)[C@H](NS(=O)(=O)c1ccc(Cl)s1)C(C)(C)O` [Example 162, 5-Chloro-N-[(S,S)-1-(1-hydroxy-1-methylethyl)-2-methylbutyl]thiophene-2-sulfonamide], the fold induction at 10 µg/mL in series [1] (setting [3]) amounted to 2.6.

Consider `C=C(C)C(O)C(NS(=O)(=O)c1ccc(Cl)s1)C(C)CC` (mixture of isomers) [Example 133], for which the “APPI Fold Increase” value in series [1] (Conc 10 μg/mL) was 2.51 fold and 1.68 fold. Regarding `CCCCCC[C@H](CC)[C@@H](CO)NS(=O)(=O)c1ccc(Cl)s1` [Example 77B, 5-chloro-N-[(1S,2S)-2-ethyl-1-(hydroxymethyl)octyl]thiophene-2-sulfonamide], the fold induction at 20 µg/mL in series [1] (setting [2]) was determined as 16.9. Regarding `CCC(CC)[C@H](NS(=O)(=O)c1ccc(Cl)s1)C(C)O` (stereo partly drawn) [Example 222, 5-Chloro-N-[(S)-2-ethyl-1-(1-hydroxyethyl)butyl]thiophene-2-sulfonamide], the melting point fell in the range of 95 to 98 °C. Moreover, the fold induction at 20 µg/mL in series [1] (setting [2]) worked out at 7.2.

As for `O=S(=O)(N[C@H](CO)C1CCC(O)CC1)c1ccc(Cl)s1` (stereo partly drawn) [Example 199A, 5-Chloro-N-[(S)-2-hydroxy-1-(4-hydroxycyclohexyl)ethyl]thiophene-2-sulfonamide], in series [1] (setting [2]), the fold induction at 20 µg/mL was 2.4. Take `CC[C@H](C)[C@H](NS(=O)(=O)c1ccc(Cl)s1)[C@@H](O)C1C=CCCC1` (stereo partly drawn) [Example 155, 5-Chloro-N-{(S,S)-1-[(S)-cyclohex-2-en-1-yl(hydroxy)methyl]-2-methylbutyl}thiophene-2-sulfonamide]: the fold induction at 20 µg/mL in series [1] (setting [2]) stood at 4.2.

For `CC[C@H](C)[C@@H](CO)NS(=O)(=O)c1cc(Cl)sc1Cl` [Example 5], the “APPI Fold Increase” value in series [1] (Conc 0.3 μg/mL) came out at 0.9 fold; in series [1] (Conc 1 μg/mL) it was 0.9 fold; in series [1] (Conc 3 μg/mL), 1.1 fold; in series [1] (Conc 10 μg/mL), 1.1 fold. With `CCCCCC[C@@H](C)[C@@H](CO)NS(=O)(=O)c1ccc(Br)s1` [Example 57, 5-bromo-N-[(1S,2R)-1-(hydroxymethyl)-2-methyloctyl]thiophene-2-sulfonamide], the fold induction at 20 µg/mL in series [1] (setting [2]) amounted to 6.4.

In the case of `CCNC1CCC([C@@H](CO)NS(=O)(=O)c2ccc(Cl)s2)CC1` (stereo partly drawn) [Example 213, 5-chloro-N-[(S)-2-hydroxy-1-(4-ethylaminocyclohexyl)ethyl]thiophene-2-sulfonamide], the fold induction at 20 µg/mL in series [1] (setting [2]) amounted to 1.6. On the same count and under the same terms, in the case of `O=[N+]([O-])c1ccc([C@@H](O)[C@@H](CO)NS(=O)(=O)c2ccc(Cl)s2)cc1` [Example 99, 5-chloro-N-[(R,R)-2-hydroxy-1-(hydroxymethyl)-2-(4-nitrophenyl)ethyl]thiophene-2-sulfonamide] it was 1.5. As to `O=S(=O)(N[C@H](CO)C1CCCCC1)c1ccc(Cl)s1` [Example 12, 5-Chloro-N-[(1S)-1-cyclohexyl-2-hydroxyethyl]thiophene-2-sulfonamide], the fold induction at 1 µg/mL in series [1] (Conc 1 μg/mL, read-out: APPI Fold Increase) came out at 2.58. In addition, in series [1] (Conc 3 μg/mL, read-out: APPI Fold Increase), the fold induction at 3 µg/mL worked out at 3.07. Moreover, the fold induction at 10 µg/mL in series [1] (setting [3]) worked out at 4.2. In addition, the fold induction at 20 µg/mL in series [1] (setting [2]) came to 4.3. In the case of `CC(=O)N1CCC(CO)(NS(=O)(=O)c2ccc(Cl)s2)CC1` [Example 203, N-[1-Acetyl-4-(hydroxymethyl)piperidin-4-yl]-5-chlorothiophene-2-sulfonamide], in series [1] (setting [2]), the fold induction at 20 µg/mL stood at 1.5. Turning to `O=S(=O)(N[C@H](CO)C1CCC(NCc2ccccn2)CC1)c1ccc(Cl)s1` (stereo partly drawn) [Example 219, 5-chloro-N-[(S)-2-hydroxy-1-(4-(2-pyridyl)methylaminocyclohexyl)ethyl]thiophene-2-sulfonamide], the fold induction at 20 µg/mL in series [1] (setting [2]) turned out to be 2.3.

In the case of `CC[C@H](C)[C@H](NS(=O)(=O)c1cccs1)C(O)c1ccc(SC)cc1` (stereo partly drawn) [Example 153, N-((S,S)-1-{hydroxy[4-(methylthio)phenyl]methyl}-2-methylbutyl)thiophene-2-sulfonamide], the fold induction at 10 µg/mL in series [1] (setting [3]) was determined as 2.09. `CCCCCC[C@@H](CCC)[C@@H](CO)NS(=O)(=O)c1ccc(Cl)s1` [Example 37, 5-chloro-N-[(1S,2R)-1-(hydroxymethyl)-2-propyloctyl]thiophene-2-sulfonamide]: in series [1] (setting [2]), the fold induction at 20 µg/mL is 4.8.

As to `CC[C@@H](c1ccco1)[C@@H](CO)NS(=O)(=O)c1ccc(Br)s1` [Example 71, 5-bromo-N-[(1S,2R)-2-(2-furyl)-1-(hydroxymethyl)butyl]thiophene-2-sulfonamide], in series [1] (setting [2]), the fold induction at 20 µg/mL amounted to 5.2. The same measure, in the same setting: in the case of `CCC(C)C(C)C(CO)NS(=O)(=O)c1ccc(Cl)s1` (stereo not drawn) [Example 19, 5-Chloro-N-[1-(hydroxymethyl)-2,3-dimethylpentyl]thiophene-2-sulfonamide] it was 6. The same measure, in the same setting: the same measure for `CC[C@H](C)[C@@H](CO)N(Cc1cccc(Cl)c1)S(=O)(=O)c1ccc(Cl)s1` [Example 88, 5-chloro-N-(3-chlorobenzyl)-N-[(1S,2S)-1-(hydroxymethyl)-2-methylbutyl]thiophene-2-sulfonamide]: 4.9.

For the compound “5-chloro-N-{(S,R)-2-hydroxy-1-[(S)-1-methylpropyl]pent-4-enyl}thiophene-2-sulfonamide [Example 189]”, the “APPI Fold Increase” value in series [1] (Conc 20 μg/mL) is 8.1 fold and 7.9 fold and 7.2 fold and 4.4 fold.
